We go through nine compounds from ChEMBL document CHEMBL3739384 (Medchemcomm, 2015).

By pKi is commonly meant the negative decadic logarithm of the Ki, by convention in mol/L. A higher pKi goes with a small Ki.

Common to all, as to assay type: cell-based, HEK-293T
The target of one test is Histamine H1 receptor (Homo sapiens, UniProt P35367). The experiment in a line: Displacement of [3H]-mepyramine from human histamine H1 receptor expressed in HEK293T cells after 1 to 1.5 hrs by liquid scintillation counting analysis. On the technique in general: Loss of bound radioactivity is the signal in a displacement assay; it reports binding, not function.
The next test deals with Histamine H4 receptor (Homo sapiens, UniProt Q9H3N8). Nature of the test: Displacement of [3H]-histamine from human histamine H4 receptor expressed in HEK293T cells after 1 to 1.5 hrs by liquid scintillation counting analysis.
The target of test [1] is Beta-2 adrenergic receptor (Homo sapiens, UniProt P07550). Nature of the test: Displacement of [3H]-dihydroalprenolol from human beta2 adrenergic receptor expressed in HEK293T cells after 1 to 1.5 hrs by liquid scintillation counting analysis.

pKi: −log10 of the molar value.

Sequence of Histamine H1 receptor (P35367 whole entry): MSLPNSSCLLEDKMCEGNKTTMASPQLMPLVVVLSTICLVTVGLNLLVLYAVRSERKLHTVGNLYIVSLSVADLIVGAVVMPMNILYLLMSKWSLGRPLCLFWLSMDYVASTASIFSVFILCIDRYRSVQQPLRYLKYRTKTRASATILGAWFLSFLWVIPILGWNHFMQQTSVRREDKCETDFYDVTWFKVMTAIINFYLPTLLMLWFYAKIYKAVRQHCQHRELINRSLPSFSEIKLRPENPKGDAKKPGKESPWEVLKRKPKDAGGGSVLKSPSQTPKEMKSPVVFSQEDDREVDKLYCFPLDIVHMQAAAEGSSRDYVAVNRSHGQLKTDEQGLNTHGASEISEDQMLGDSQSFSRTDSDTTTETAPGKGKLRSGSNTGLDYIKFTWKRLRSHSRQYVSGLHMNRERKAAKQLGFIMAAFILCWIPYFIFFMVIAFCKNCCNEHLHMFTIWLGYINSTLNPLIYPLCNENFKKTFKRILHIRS
Sequence of Beta-2 adrenergic receptor (P07550 whole entry): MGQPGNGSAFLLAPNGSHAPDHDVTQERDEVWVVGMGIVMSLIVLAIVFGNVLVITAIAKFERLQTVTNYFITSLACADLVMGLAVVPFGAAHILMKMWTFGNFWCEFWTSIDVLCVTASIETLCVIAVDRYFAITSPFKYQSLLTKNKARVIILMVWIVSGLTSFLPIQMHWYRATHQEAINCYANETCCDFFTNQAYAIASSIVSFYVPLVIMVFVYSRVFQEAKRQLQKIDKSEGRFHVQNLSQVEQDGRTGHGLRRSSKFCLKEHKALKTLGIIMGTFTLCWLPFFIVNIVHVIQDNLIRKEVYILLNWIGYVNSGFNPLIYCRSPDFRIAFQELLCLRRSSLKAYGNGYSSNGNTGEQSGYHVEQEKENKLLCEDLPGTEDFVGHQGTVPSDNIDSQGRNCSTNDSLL
Sequence of Histamine H4 receptor (Q9H3N8 whole entry): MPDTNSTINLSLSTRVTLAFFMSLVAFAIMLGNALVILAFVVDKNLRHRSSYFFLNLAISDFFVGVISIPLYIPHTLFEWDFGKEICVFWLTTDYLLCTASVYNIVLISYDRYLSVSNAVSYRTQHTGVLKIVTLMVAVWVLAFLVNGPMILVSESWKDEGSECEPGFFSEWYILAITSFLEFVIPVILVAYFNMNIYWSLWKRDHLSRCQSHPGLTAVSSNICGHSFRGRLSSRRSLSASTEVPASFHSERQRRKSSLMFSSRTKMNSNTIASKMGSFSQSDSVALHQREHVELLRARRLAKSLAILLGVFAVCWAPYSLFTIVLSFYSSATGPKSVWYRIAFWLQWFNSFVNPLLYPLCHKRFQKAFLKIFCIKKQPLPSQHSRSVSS

Consider `Cc1cc(N2CCN(C)CC2)nc(N2CCOCC2)n1`, for which the pKi at Histamine H1 receptor is greater than 5.00; on Histamine H4 receptor it was 5.16.
On to `CN1CCN(c2ncnc3c2oc2ccccc23)CC1`, for which the pKi in test [1] was less than 5.00; on Histamine H4 receptor, 6.84.
Turning to `COc1ccc2c(c1)[nH]c1c(N3CCN(C)CC3)ncnc12`, the pKi in test [1] was less than 5.00; at Histamine H4 receptor, 5.20.
As to `Cc1nc(N2CCN(C)CC2)c2oc3ccccc3c2n1`, the pKi in test [1] is less than 5.00; on Histamine H4 receptor, 6.83.
With `Cc1cc2nc(SCCN(C)C)[nH]c2cc1C`, the pKi was less than 5.00 at Histamine H1 receptor and 5.16 at Histamine H4 receptor.
In the case of `COc1ccc2[nH]c3c(N4CCN(C)CC4)ncnc3c2c1`, the figures for the pKi (in test [1]; at Histamine H4 receptor) were less than 5.00 and 5.23, respectively.
Take `Cc1nnc2c(N3CCN(C)CC3)nc3ccccc3n12`: the pKi is greater than 5.00 at Histamine H1 receptor and 5.19 at Histamine H4 receptor.
For the compound `CCc1nc(N2CCN(C)CC2)c2oc3ccccc3c2n1`, the pKi in test [1] is less than 5.00; at Histamine H4 receptor, 6.57.
In the case of `CN(C)CCNc1ncnc2c1[nH]c1ccc(Cl)cc12`, the pKi in test [1] was less than 5.00; on Histamine H4 receptor, 5.23.
